Literature values in US20230292757A1, “SYNERGISTIC AGROCHEMICAL COMPOSITION COMPRISING DIAMIDES AND PLANT GROWTH REGULATORS” (priority 2020, published 2023).

What was measured:
S. littoralis = conditions: oral
L. migratoria = conditions: oral

Q: What does the source list for C=C1C[C@]23C[C@@]1(O)CC[C@H]2[C@@]12C=C[C@H](O)[C@@](C)(C(=O)O1)[C@H]2[C@@H]3C(=O)O [Gibberellic acid (GA3), Gibberellic acid]?
A: food consumption (S. littoralis): significant reduction; food consumption (L. migratoria): significant reduction
